Counter-ions that a name gives are not always drawn. Like-named read-outs stand apart in the source and are kept apart here.
Columns and labels:
[1] = biological target: T1, β-kinase domain of the human insulin receptor (CKD) (Homo sapiens, UniProt P06213); assay: 32P-cytoplasmic kinase domain (CKD) autophosphorylation assay; type: biochemical; details: phosphorylation of CKD expressed as % of the vehicle level; 10 minutes at room temperature; compound concentration not given
T1 construct: The complete β-kinase domain of the human insulin receptor (CKD) was expressed in, and purified from, baculovirus; made in house
T1 sequence (P06213 980-1382 limits assumed): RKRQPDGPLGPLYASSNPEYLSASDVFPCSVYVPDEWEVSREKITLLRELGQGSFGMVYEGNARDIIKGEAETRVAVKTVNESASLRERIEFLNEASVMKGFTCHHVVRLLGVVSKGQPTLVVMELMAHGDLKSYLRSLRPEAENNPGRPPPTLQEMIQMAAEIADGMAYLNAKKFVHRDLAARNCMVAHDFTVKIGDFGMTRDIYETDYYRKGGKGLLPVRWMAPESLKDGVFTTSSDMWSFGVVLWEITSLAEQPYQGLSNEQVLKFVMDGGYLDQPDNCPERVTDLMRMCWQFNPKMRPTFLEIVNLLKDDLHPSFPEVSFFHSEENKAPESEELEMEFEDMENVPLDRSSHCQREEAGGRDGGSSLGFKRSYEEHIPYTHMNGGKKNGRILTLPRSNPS
Description: ^32P-cytoplasmic Kinase Domain (CKD) Autophosphorylation Assay The insulin signaling pathway is activated through stimulation of the insulin receptor. A major component of this activation is the phosphorylation of a specific portion of the receptor called the β-kinase domain. The complete β-kinase domain of the human insulin receptor (CKD) was expressed in, and purified from, baculovirus. CKD (4.0μg/ml), in a solution of 29 mM HEPES (pH 7.6), 0.05% Triton X-100, 10 mM MgCl2, 2 mM MnCl2 (50 μl final volume), was combined with 50 μM ATP, and 5 μCi ^32P-ATP (3000Ci/mmol.). A test compound, or the vehicle (dimethyl sulfoxide (DMSO)) was added to a final DMSO concentration of 1%. The mixture was incubated for 10 minutes at room temperature. The reaction was terminated by the addition of 10 μl 200 mM EDTA. A 30 μl volume was removed, mixed with 5 μl of 6× Laemmeli sodium dodecyl sulfate (SDS) treatment buffer, and heated to 94° C. for 5 minutes. A 20 μl aliquot was then run an SDS-PAGE gel. The radioactivity incorporated into the CKD band was quantified by phosphorimaging of the gel, or scintillation counting of the excised bands. The potency of a compound for increasing phosphorylation was expressed as % of the vehicle level.

human insulin receptor = biological target: T2, human insulin receptor (Homo sapiens, UniProt P06213); assay: Whole-cell phosphorylation assay (3T3HIR cells); type: cell-based; details: 15 min, anti-phosphotyrosine Western, various concentrations (FIG. 2)
T2 construct: expressed in transfected cells; host or cells: NIH 3T3 (3T3HIR)
T2 sequence (P06213 763-1382 limits assumed): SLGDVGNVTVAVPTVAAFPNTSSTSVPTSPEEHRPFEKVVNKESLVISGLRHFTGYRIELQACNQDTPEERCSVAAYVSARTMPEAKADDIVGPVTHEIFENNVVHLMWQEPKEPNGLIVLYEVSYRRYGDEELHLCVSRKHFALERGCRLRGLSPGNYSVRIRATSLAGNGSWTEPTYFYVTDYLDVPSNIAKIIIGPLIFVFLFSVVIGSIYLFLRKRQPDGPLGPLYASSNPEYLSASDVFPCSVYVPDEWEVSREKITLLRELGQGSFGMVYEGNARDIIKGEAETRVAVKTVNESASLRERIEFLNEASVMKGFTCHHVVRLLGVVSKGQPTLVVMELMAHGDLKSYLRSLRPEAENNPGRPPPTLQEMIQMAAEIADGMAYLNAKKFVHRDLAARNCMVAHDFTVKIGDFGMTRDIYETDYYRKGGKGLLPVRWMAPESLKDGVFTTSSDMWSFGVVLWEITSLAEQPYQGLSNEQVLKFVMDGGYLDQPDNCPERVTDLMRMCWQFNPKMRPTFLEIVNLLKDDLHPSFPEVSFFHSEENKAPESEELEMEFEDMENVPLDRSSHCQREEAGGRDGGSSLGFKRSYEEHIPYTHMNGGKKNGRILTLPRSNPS
T2 sequence (P06213 28-758 partner limits assumed): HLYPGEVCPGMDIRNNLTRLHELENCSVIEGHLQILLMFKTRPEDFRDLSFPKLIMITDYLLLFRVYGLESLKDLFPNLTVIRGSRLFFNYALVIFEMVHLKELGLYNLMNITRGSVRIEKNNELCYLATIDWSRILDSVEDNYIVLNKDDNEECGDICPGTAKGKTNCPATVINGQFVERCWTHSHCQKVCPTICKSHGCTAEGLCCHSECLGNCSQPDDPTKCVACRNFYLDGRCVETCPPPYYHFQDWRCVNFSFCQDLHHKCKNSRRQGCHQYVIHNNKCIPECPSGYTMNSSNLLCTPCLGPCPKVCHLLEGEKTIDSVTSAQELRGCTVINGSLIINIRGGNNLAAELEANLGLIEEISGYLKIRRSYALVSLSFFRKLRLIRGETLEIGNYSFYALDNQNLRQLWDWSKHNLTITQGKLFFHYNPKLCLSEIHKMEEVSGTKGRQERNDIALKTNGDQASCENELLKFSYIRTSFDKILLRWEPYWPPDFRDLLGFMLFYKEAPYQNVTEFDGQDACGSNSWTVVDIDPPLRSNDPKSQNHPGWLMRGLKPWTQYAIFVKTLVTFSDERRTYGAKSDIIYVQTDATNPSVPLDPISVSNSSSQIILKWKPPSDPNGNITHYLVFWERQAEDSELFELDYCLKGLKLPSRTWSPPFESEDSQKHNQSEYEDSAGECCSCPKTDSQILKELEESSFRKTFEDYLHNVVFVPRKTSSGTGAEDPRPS
Description: Whole-cell Phosphorylation Assay:
The initial step in insulin signaling is phosphorylation of the insulin receptor in response to insulin binding. NIH 3T3 cells overexpressing human insulin receptor (3T3HIR) were grown for 2 days at a density of 2×10^5/ml cells in 6 well culture dishes in DMEM with 10% FBS and L-glutamine. Prior to the experiment the cells were serum-starved overnight with DMEM with 0.1% BSA. The following morning, the cells were washed with PBS and the medium was replaced with 150 mM NaCl, 1.7 mM KCl, 0.9 mM CaCl2, K2HPO4 (pH 7.4), to which were added either the experimental compounds, or their vehicle (DMSO). Insulin or its vehicle (0.01% BSA) was diluted in the assay buffer (containing test compound or vehicle, respectively) to a final concentration of 2.5 nM. After incubating for 15 min, the cells were washed with cold PBS twice and lysed in 50 mM Tris.HCl, pH 7.4 150 mM NaCl, 0.25% sodium deoxycholate, 1% NP-40, 1 mM EGTA, 1 mM PMSF, 1 mM Na3VO4, 1 mM NaF, 1 ug/ml each of Aprotinin, Leupeptin and Pepstatin. The cell lysates were clarified by centrifugation at 12000 rpm, and the supernatants were estimated for protein concentration. Total cell lysate ([…]) was boiled with 2× SDS-PAGE sample buffer for 3 min and loaded into 7.5% SDS-PAGE along with Amersham rainbow marker protein as a molecular weight standard. […]

3T3 L1 fibroblasts = assay: Glucose transport activity assay (14C-2-deoxy-D-glucose uptake); type: cell-based; details: for EC (150% of vehicle control): EC (effective concentration) for increase in glucose transport, 14C-2-deoxy-D-glucose, 3T3 L1 cells, read-out: Concentration (μM) to reach >150% activity of vehicle control
In short: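 Differentiated 3T3 L1 adipocytes (IBMX/dexamethasone/insulin induction), serum-starved overnight, preincubated 30 min at 37 °C with compound ± insulin in pH 7.4 salt buffer, then 30 min with 5 μCi/ml 14C-2-deoxy-D-glucose. Lysate radioactivity counted; EC = concentration raising uptake above 150% of vehicle control.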

STZ/HFD rat = assay: Blood glucose determination in the STZ/HFD rat model of Type 2 diabetes; type: in vivo; details: STZ/HFD rat model, oral compound administration (30 mg/kg)
Source text: Blood Glucose Determination in the STZ/HFD Rat Model of Type 2 Diabetes
Representative compounds were also profiled in genetically normal rats given a high-fat diet followed by treatment with a low dose of streptozotocin (STZ/HFD). This treatment regimen recreates both the insulin resistance and the hyperglycemia seen in human Type 2 diabetes. Male CD rats (Jackson Labs, Bar Harbor Me.) were maintained according to NIH guidelines, housed two per cage, and fed either standard lab chow (Tekland Laboratory Diets, James Grain, San Jose, Calif.) or the same chow supplemented with chocolate bars, cookies, and potato chips such that their final diet contained 30% fat by weight (high-fat diet; HFD). After two weeks of this diet, the animals were given an injection of freshly-prepared streptozotocin (35 mg/kg, i.p.) and continued on the HFD. Animals that achieved glucose levels of 190 to 380 mg/dl were used in this study. At the end of the 12-hour light/dark cycle, and just prior to the experiment, the animals were moved to new cages with no food available until 4 hours after treatment. The compound or vehicle (PBS) was given p.o. by gavage, and blood was sampled by approved IACUC protocol using tail cap method. Glucose was determined using the Glucometer Elite (Bayer, Elkhart, Ind.).
The reduction was maximal (20%) 4 hours after the administration of Compound 15.

SMILES | % Activity vs. Control [1] | autophosphorylation of the insulin receptor in whole cells (human insulin receptor) | glucose uptake of cells (3T3 L1 fibroblasts; in the presence or absence of insulin (FIG. 3)) | % Reduction in Blood Glucose (maximal reduction) (STZ/HFD rat) | Time (h) at which maximal reduction in blood glucose occurred (STZ/HFD rat) | EC (150% of vehicle control) (3T3 L1 fibroblasts; Mus musculus) | EC (150% of vehicle control) (3T3 L1 fibroblasts)
O=C(Nc1ccc2c(O)cc(S(=O)(=O)O)cc2c1)Nc1ccc2c(O)cc(S(=O)(=O)Nc3ccc(C(=O)O)cc3)cc2c1 [Compound 28, 4-{[(4-hydroxy-7-{[N-(5-hydroxy-7-sulfo(2-naphthyl))carbamoyl]amino}-2-naphthyl)sulfonyl]amino}benzoic acid] | 124% | – | – | – | – | 32 µM | –
O=C(Nc1ccc2ccc(S(=O)(=O)Nc3ccc(Cl)c(C(=O)O)c3)cc2c1)Nc1ccc2ccc(S(=O)(=O)Nc3ccc(Cl)c(C(=O)O)c3)cc2c1 [Compound 48, 5-{[(7-{[N-(7-{[(3-carboxy-4-chlorophenyl)amino]sulfonyl}(2-naphthyl))carbamoyl]amino}(2-naphthyl))sulfonyl]amino}-2-chlorobenzoic acid] | – | – | – | 24% | 2 h | 3.2 µM | –
NS(=O)(=O)c1ccc2ccc(NC(=O)Nc3ccc4ccc(S(N)(=O)=O)cc4c3)cc2c1 [Compound 89, N-(7-sulfamoyl(2-naphthyl))[(7-sulfamoyl(2-naphthyl))amino]carboxamide] | 104% | – | – | – | – | 3.2 µM | –
O=C(Nc1ccc2c(O)cc(S(=O)(=O)Nc3ccc(Cl)c(S(=O)(=O)O)c3)cc2c1)Nc1ccc2c(O)cc(S(=O)(=O)Nc3ccc(Cl)c(S(=O)(=O)O)c3)cc2c1 [Compound 93, 2-chloro-5-{[(7-{[(7-{[(4-chloro-3-sulfophenyl)amino]sulfonyl}-5-hydroxy(2-naphthyl))amino]carbonylamino}-4-hydroxy(2-naphthyl))sulfonyl]amino}benzenesulfonic acid] | – | – | – | 25% | 4 h | 3.2 µM | –
CCOC(=O)COc1cc(S(=O)(=O)O)cc2cc(NC(=O)Nc3ccc4c(O)cc(S(=O)(=O)O)cc4c3)ccc12.N.N [Compound 94, 7-[({5-[(ethoxycarbonyl)methoxy]-7-sulfo(2-naphthyl)}amino)carbonylamino]-4-hydroxy-naphthalene-2-sulfonic acid, diammonium salt] | 279% | – | – | – | – | – | 32 µM
COc1cc(S(=O)(=O)O)cc2cc(NC(=O)Nc3ccc4c(O)cc(S(=O)(=O)O)cc4c3)ccc12 [Compound 98, 4-hydroxy-7-{[(5-methoxy-7-sulfo(2-naphthyl))amino]carbonylamino}naphthalene-2-sulfonic acid] | 166% | – | – | – | – | 32 µM | –
COc1cc(S(=O)(=O)O)cc2cc(NC(=O)Nc3ccc4c(OC)cc(S(=O)(=O)O)cc4c3)ccc12 [Compound 99, 4-methoxy-7-{[(5-methoxy-7-sulfo(2-naphthyl))amino]carbonylamino}naphthalene-2-sulfonic acid] | 110% | – | – | – | – | 32 µM | –

More lines, main results first:

% Activity vs. Control [1] | autophosphorylation of the insulin receptor in whole cells (human insulin receptor) | SMILES | glucose uptake of cells (3T3 L1 fibroblasts; in the presence or absence of insulin (FIG. 3)) | % Reduction in Blood Glucose (maximal reduction) (STZ/HFD rat) | Time (h) at which maximal reduction in blood glucose occurred (STZ/HFD rat) | EC (150% of vehicle control) (3T3 L1 fibroblasts; Mus musculus) | EC (150% of vehicle control) (3T3 L1 fibroblasts)
135% | increase of autophosphorylation | O=C(Nc1ccc2ccc(S(=O)(=O)Nc3cccc(S(=O)(=O)O)c3)cc2c1)Nc1ccc2ccc(S(=O)(=O)Nc3cccc(S(=O)(=O)O)c3)cc2c1 [Compound 13, 3-{[(7-{[N-(7-{[(3-sulfophenyl)amino]sulfonyl}-2-naphthyl)carbamoyl]amino}-2-naphthyl)sulfonyl]amino}benzenesulfonic acid disodium salt] | increase in glucose uptake of cells | 20% | 1 h | – | –
106% | – | O=C(Nc1ccc2c(O)cc(S(=O)(=O)Nc3ccc(C(=O)O)cc3)cc2c1)Nc1ccc2c(O)cc(S(=O)(=O)Nc3ccc(C(=O)O)cc3)cc2c1 [Compound 29, 4-{[(7-{[N-(7-{[(4-carboxyphenyl)amino]sulfonyl}-5-hydroxy(2-naphthyl))carbamoyl]amino}-4-hydroxy-2-naphthyl)sulfonyl]amino}benzoic acid] | – | 18% | 6 h | 3.2 µM | –
93% | – | COC(=O)c1cccc(NS(=O)(=O)c2ccc3ccc(NC(=O)Nc4ccc5ccc(S(=O)(=O)Nc6cccc(C(=O)OC)c6)cc5c4)cc3c2)c1 [Compound 39, methyl 3-({[7-({[7-({[3-(methoxycarbonyl)phenyl]amino}sulfonyl)-2-naphthyl]amino}carbonylamino)-2-naphthyl]sulfonyl}amino)benzoate] | – | – | – | 32 µM | –
130% | – | O=C(Nc1ccc2ccc(S(=O)(=O)Nc3cccc(C(=O)O)c3)cc2c1)Nc1ccc2ccc(S(=O)(=O)Nc3cccc(C(=O)O)c3)cc2c1 [Compound 40, 3-{[(7-{[N-(7-{[(3-carboxyphenyl)amino]sulfonyl}-2-naphthyl)carbamoyl]amino}-2-naphthyl)sulfonyl]amino}benzoic acid] | – | – | – | 3.2 µM | –
109% | – | COC(=O)c1cccc(NS(=O)(=O)c2cc(O)c3ccc(NC(=O)Nc4ccc5c(O)cc(S(=O)(=O)Nc6cccc(C(=O)OC)c6)cc5c4)cc3c2)c1 [Compound 41, methyl 3-({[4-hydroxy-7-({[5-hydroxy-7-({[3-(methoxycarbonyl)phenyl]amino}sulfonyl)(2-naphthyl)]amino}carbonylamino)-2-naphthyl]sulfonyl}amino)benzoate] | – | 20% | 4 h | 32 µM | –
124% | – | O=C(Nc1ccc2c(O)cc(S(=O)(=O)Nc3cccc(C(=O)O)c3)cc2c1)Nc1ccc2c(O)cc(S(=O)(=O)Nc3cccc(C(=O)O)c3)cc2c1 [Compound 42, 3-{[(7-{[N-(7-{[(3-carboxyphenyl)amino]sulfonyl}-5-hydroxy(2-naphthyl))carbamoyl]amino}-4-hydroxy-2-naphthyl)sulfonyl]amino}benzoic acid] | – | – | – | 3.2 µM | –
171% | – | O=C(Nc1ccc2ccc(S(=O)(=O)Nc3cccnc3)cc2c1)Nc1ccc2ccc(S(=O)(=O)Nc3cccnc3)cc2c1 [Compound 77, N-{7-[(3-pyridylamino)sulfonyl](2-naphthyl)}({7-[(3-pyridylamino)sulfonyl](2-naphthyl)}amino)carboxamide] | – | – | – | 3.2 µM | –
